Measured values taken from patent US20050288359A1, “Agents and methods for the treatment of disorders associated with oxidative stress” (Monash University, priority 2002, published 2005).
Where two headings read alike, the source gives them in different places.

Tests used:
[1] = test system: neonatal mouse fibroblasts; test: Oxidant stress-induced cell death of fibroblasts (LDH release); format: cell-based
Experimental: FIG. 2 is a plot of the oxidant stress-induced cell death of neonatal mouse fibroblasts exposed to paraquat. Cells (5×10^3 per well) were treated overnight with freshly prepared paraquat or peroxynitrite. Culture medium from wells was assayed for lactate dehydrogenase (LDH) release as a marker of cytotoxicity. […] Values represent means±SEMs of triplicate wells, *P<0.05 difference from untreated cells. The x-axis represents concentration of Paraquat and Peroxynitrite in μM.
(§1) We developed two cell culture systems that can be used to screen drugs that prevent cell death induced by oxidant stress (FIG. 3, Model A) and excitotoxicity (FIG. 4, Model B). In model A, we utilize cultured fibroblasts that are exposed to paraquat that induces significant death at 10 μM (see FIG. 3). In model B we utilize the NSC-34 motor neuron cell line that can be induced to degenerate via the glutamate excitotixic pathway using the specific agonist fluorowillardine or FW (see FIG. 4).

[2] = In vitro antioxidant assay: oxidation of linoleic acid to conjugated diene hydroperoxide, free radical initiator AAPH, absorbance at 234 nm; format: biochemical
Source text: Lipid oxidation can usually be prevented by the addition free radical scavengers (FRS), more commonly known as antioxidants. Their role is to turn reactive and harmful molecules such as hydroxy, nitroxy and superoxide radicals into innocuous molecules that can be passed or converted by biological processes. One of the main pathways that lead to apoptosis in cells is oxidative stress. This event is a product of the action of these harmful radicals on the cell walls and membranes, leading to their breakdown. In terms of the antioxidant evaluation (Scheme 1), […] was utilised as a free radical initiator […], and the efficiency was calculated based on the formation of a conjugated diene hydroperoxide generated through the oxidation of linoleic acid in the presence and absence of a free radical scavenger. The conjugated diene hydroperoxide mimics the products of cellular oxidative stress imposed on the cell wall. The antioxidant can act at any stage of the reaction to stop or slow down the formation of the conjugated diene by reacting with the appropriate radicals (Scheme 1).
A convenient test to determine the efficiency of antioxidants in aqueous systems was setup using 2,2′-azobis(2-amidinopropane).2HCl ([…]) as a free radical initiator (Scheme 1). The production of conjugated diene hydroperoxide (LOOH) generated through the oxidation of linoleic acid in an aqueous system at 37° C. is monitored at 234 nm for 15 minutes using a Cary 100 UV-Vis spectrophotometer.
The efficiency is determined according to a standard, that is the generation of free radicals in the absence of an antioxidant. Efficiency is then calculated using the following equation: Efficiency (%)=1−[K2/K1]×100 Where: • K1=rate of oxidation of standard (no antioxidant)=[difference in absorbance]/[time (sec)] • K2=rate of oxidation with antioxidant=[difference in absorbance]/[time (sec)]
Prior to testing the efficiency of the compounds of the present invention, a number of well known antioxidants including vitamin E and ascorbic acid were tested. Each of the tests for vitamin E and ascorbic acid gave similar results to those presented in the literature. A number of other variables were tested including the amounts of antioxidant, substrate (linoleic acid) and initiator (AAPH). The optimal volumes are shown below: • 2.78 ml 0.05M phosphate buffer pH 7.4 • 30 ul of linoleic acid dispersion stock • 10 ul of 0.01M antioxidant stock
150 ul of 40 mM […] stock
When testing the efficiency of compounds of the present invention in the presence and absence of Ca^2+, HEPES buffered saline was used instead of the standard phosphate buffer and CaCl2 was used as a source of calcium ions.

[3] = test system: NSC-34D motor neuron cell line; test: Excitotoxic cell death of motor neuron cell line (MTT reduction); format: cell-based; details: exposed for 72 hours
Experimental: FIG. 3 is a plot showing the effect of (S)-5-fluorowillardiine (“(S)-5-FW”) on survival (MTT reduction) of NSC-34D motor neuron cell line. These cells were cultured at 1×10^4 cells/well for 48 hours in DMEM/F-12 with 1% (v/v) FCS and then exposed to various concentrations of (S)-5-FW for 72 hours. MTT solution (0.5 mg/ml) was added to cultures for 2 hours, cells were solubilised and MTT reduction quantified as a percentage of […]. Statistically significant differences from control (zero (S)-5-FW) were defined using one-way ANOVA (*P<0.05, ***P<0.001).
as §1

[4] = 0.05M phosphate buffer pH 7.4, 37° C., 15 minutes, antioxidant stock 0.01 M, final concentration 33.3 μM
[5] = HBS with calcium (67%), CaCl2 as calcium source, solvent methanol or DMSO (33%)
[6] = HBS without calcium (67%), solvent methanol or DMSO (33%)

Compound | Efficiency [2, 4] | Efficiency [2, 5] | Efficiency [2, 6] | further results
O=NOO [peroxynitrite] |  |  |  | Cell death (LDH release as marker of cytotoxicity) [1]: not peroxynitrite induced significant cell death
O=C1O[C@H]([C@@H](O)CO)C(O)=C1O [Ascorbic Acid] | 74% |  |  | 
COc1ccccc1N(CC(=O)O)CC(=O)O [(6), N,N-bis(acetic acid)o-anisidine] | 43% | 35% | 46% | 
Bis[2-(bis-ethoxycarbonylmethyl)aminophenoxy]ethane [compound (3)] | 20% |  |  | 
C[n+]1ccc(-c2cc[n+](C)cc2)cc1 [paraquat] |  |  |  | Cell death (LDH release as marker of cytotoxicity) ([1]; 5×10^3 cells per well, treated overnight, high doses): induced significant cell death; Concentration that induces significant death of cultured fibroblasts ([1]; model A, oxidant stress): 10 µM
CCOC(=O)CN(CC(=O)OCC)c1ccccc1OC [(5), N,N-bis(ethoxycarbonylmethyl)o-anisidine] | 47% |  |  | 
Vitamin E | 93% | 94% | 90% | 
O=C(O)CN(CC(=O)O)c1ccccc1OCCOc1ccccc1N(CC(=O)O)CC(=O)O [compound (4), bis(o-aminophenoxy)ethane-N,N,N′,N′-tetraacetic acid] | 83% | 93% | 93% | 
N[C@@H](Cn1cc(F)c(=O)[nH]c1=O)C(=O)O [(S)-5-FW, (S)-5-fluorowillardiine] |  |  |  | Concentration of maximal cell death effect [3]: 1000 µM; Effect on survival (MTT reduction) ([3]; various concentrations): significant cell death in concentration dependent manner
